In patent US12084437B2, “Halo-substituted piperidines as orexin receptor modulators” (AstraZeneca AB, priority 2016, dated 2024):
“And” between values parts separate entries of the source, which are not always exact repeats. Identical values can stand only once.

Columns and labels:
OX1 = molecular target: T1, OX1 (Homo sapiens, UniProt O43613); assay: Orexin receptor cell-based functional assay, [Ca2+]i by FLIPR, CHO-OX1 cells; settings: FLIPR calcium, antagonism of EC90 of [OX], read-out: OXI, IC50
T1 construct: expressed in transfected cells; host or cells: CHO (CHO-OX1)
T1 sequence (O43613 1-425): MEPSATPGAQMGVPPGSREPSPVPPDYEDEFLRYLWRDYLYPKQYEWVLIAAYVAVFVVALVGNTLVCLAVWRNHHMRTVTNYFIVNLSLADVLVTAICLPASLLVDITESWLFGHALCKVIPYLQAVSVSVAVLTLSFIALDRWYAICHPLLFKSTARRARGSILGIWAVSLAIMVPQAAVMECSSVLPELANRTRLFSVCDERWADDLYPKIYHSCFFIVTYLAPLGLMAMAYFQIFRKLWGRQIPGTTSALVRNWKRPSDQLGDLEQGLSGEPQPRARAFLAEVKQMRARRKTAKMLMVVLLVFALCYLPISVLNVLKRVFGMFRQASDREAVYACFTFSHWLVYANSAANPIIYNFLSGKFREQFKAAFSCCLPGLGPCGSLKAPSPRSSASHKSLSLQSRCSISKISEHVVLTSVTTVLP

OX2 = molecular target: T2, OX2 (Homo sapiens, UniProt O43614); assay: Orexin receptor cell-based functional assay, [Ca2+]i by FLIPR, CHO-OX2 cells; settings: FLIPR calcium, antagonism of EC90 of [OX]
T2 construct: expressed in transfected cells; host or cells: CHO (CHO-OX2)
T2 sequence (O43614 1-444): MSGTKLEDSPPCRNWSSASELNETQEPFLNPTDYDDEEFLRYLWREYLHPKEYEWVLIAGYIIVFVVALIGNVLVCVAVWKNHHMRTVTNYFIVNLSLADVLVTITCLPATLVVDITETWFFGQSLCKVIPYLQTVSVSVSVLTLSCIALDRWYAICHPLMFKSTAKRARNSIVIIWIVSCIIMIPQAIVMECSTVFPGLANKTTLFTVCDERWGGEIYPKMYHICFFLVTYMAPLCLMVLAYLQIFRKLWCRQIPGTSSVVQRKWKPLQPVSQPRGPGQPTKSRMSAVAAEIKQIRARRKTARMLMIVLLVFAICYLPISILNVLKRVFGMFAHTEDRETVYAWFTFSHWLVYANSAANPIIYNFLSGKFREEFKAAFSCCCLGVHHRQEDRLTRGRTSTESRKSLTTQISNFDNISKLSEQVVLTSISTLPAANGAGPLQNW
Summary of the method: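 CHO cells expressing human OX1 or OX2 (20,000/well, grown overnight) were loaded with Calcium6 dye plus 2.5 mM probenecid for 2 h at 37 °C, then preincubated 30 min with compound (0.1 nM–10 µM). FLIPR fluorescence (ex 488/em 540 nm) was tracked before and after an EC90 orexin challenge.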

With `Cc1nc(C(=O)N2CC(F)(F)C[C@@H](C)[C@H]2CNc2ncc(C(F)(F)F)cn2)c(-c2ccc(F)cn2)s1` [Compound 72] the IC50 (OX1) was 237 nM and the IC50 (OX2) was > 5000 nM.

`COc1ccc(-c2sc(C)nc2C(=O)N2CC(F)(F)C[C@@H](C)[C@H]2CNc2ncc(C(F)(F)F)cn2)nc1` [Compound 78] was tested, and the IC50 (OX1) was 2 nM and the IC50 (OX2) was > 5000 nM.

`C[C@@H]1CC(F)(F)CN(C(=O)c2nn(C)cc2-c2ccccn2)[C@@H]1COc1ccc(C(F)(F)F)cn1` [Compound 220, ((2S,3R)-5,5-difluoro-3-methyl-2-(((5-(trifluoromethyl)pyridin-2-yl)oxy)methyl)piperidin-1-yl)(1-methyl-4-(pyridin-2-yl)-1H-pyrazol-3-yl)methanone] was tested, and the IC50 (OX1) was 8 nM and the IC50 (OX2) was > 5000 nM.

For `Cc1nc(C(=O)N2CC(F)(F)C[C@@H](C)[C@H]2CNc2ncc(C(F)(F)F)cn2)c(-c2ccccn2)s1` [Compound 70], the IC50 (OX1) was 5 nM and the IC50 (OX2) was > 5000 nM.

In the case of `Cc1nc(C(=O)N2CC(F)(F)C[C@@H](C)[C@H]2CNc2ncc(C(F)(F)F)cn2)c(-c2ccccc2)o1` [Compound 85], the IC50 (OX1) is reported as 12 nM and 30 nM and the IC50 (OX2) is reported as > 5000 nM.

For `COc1ccc(-c2cn(C)nc2C(=O)N2CC(F)(F)C[C@@H](C)[C@H]2CNc2cnc(C(F)(F)F)cn2)cc1` [Compound 125], the IC50 (OX1) was 4 nM and 2 nM and the IC50 (OX2) was > 5000 nM.

With `Cc1ccc(C#CC2CC2)c(C(=O)N2CC(F)(F)C[C@@H](C)[C@H]2CNc2ncc(C(F)(F)F)cn2)n1` [Compound 234, (3-(cyclopropylethynyl)-6-methylpyridin-2-yl)((2S,3R)-5,5-difluoro-3-methyl-2-(((5-(trifluoromethyl)pyrimidin-2-yl)amino)methyl)piperidin-1-yl)methanone] the IC50 (OX1) was 29 nM and the IC50 (OX2) was > 5000 nM.

In the case of `Cc1ccc(-c2ncccn2)c(C(=O)N2CC(F)(F)C[C@@H](C)[C@H]2CNc2ncc(C(F)(F)F)cn2)n1` [Compound 17, ((2S,3R)-5,5-difluoro-3-methyl-2-(((5-(trifluoromethyl)pyrimidin-2-yl)amino)methyl)piperidin-1-yl)(6-methyl-3-(pyrimidin-2-yl)pyridin-2-yl)methanone], the IC50 (OX1) is reported as 8 nM and the IC50 (OX2) is reported as > 5000 nM.

`C[C@@H]1CC(F)(F)CN(C(=O)c2nn(C)nc2-c2ccccc2)[C@@H]1CNc1ncc(C(F)(F)F)cn1` [Compound 82] was tested, and the IC50 (OX1) was 45 nM and the IC50 (OX2) was > 5000 nM.

In the case of `C[C@@H]1CC(F)(F)CN(C(=O)c2nn(C)cc2-c2ccc(F)cn2)[C@@H]1CNc1ncc(C(F)(F)F)cn1` [Compound 42], the IC50 (OX1) is reported as > 1000 nM and the IC50 (OX2) is reported as > 5000 nM.

With `Cc1ccc(-n2ncc(C)n2)c(C(=O)N2CC(F)(F)C[C@@H](C)[C@H]2CNc2ncc(C(F)(F)F)cn2)c1` [Compound 7] the IC50 (OX1) was 7 nM and the IC50 (OX2) was > 5000 nM.

With `Cc1ccc(-c2ccccn2)c(C(=O)N2CC(F)(F)C[C@@H](C)[C@H]2CNc2ncc(C(F)(F)F)cn2)n1` [Compound 16, ((2S,3R)-5,5-difluoro-3-methyl-2-(((5-(trifluoromethyl)pyrimidin-2-yl)amino)methyl)piperidin-1-yl)(6′-methyl-[2,3′-bipyridin]-2′-yl)methanone] the IC50 (OX1) was 60 nM and the IC50 (OX2) was > 5000 nM.

For `Cc1ccc(-n2nccn2)c(C(=O)N2CC(F)(F)C[C@@H](C)[C@H]2CNc2ccc(C(F)(F)F)cn2)n1` [Compound 174], the IC50 (OX1) was 4 nM and the IC50 (OX2) was > 5000 nM.

`Cc1ccc(-c2sc(C)nc2C(=O)N2CC(F)(F)C[C@@H](C)[C@H]2CNc2ncc(C(F)(F)F)cn2)cc1` [Compound 64] was tested, and the IC50 (OX1) was 4 nM and the IC50 (OX2) was > 5000 nM.

In the case of `C[C@@H]1CC(F)(F)CN(C(=O)c2nn(C)cc2-c2cncnc2)[C@@H]1CNc1ncc(C(F)(F)F)cn1` [Compound 230, ((2S,3R)-5,5-difluoro-3-methyl-2-(((5-(trifluoromethyl)pyrimidin-2-yl)amino)methyl)piperidin-1-yl)(1-methyl-4-(pyrimidin-5-yl)-1H-pyrazol-3-yl)methanone], the IC50 (OX1) is reported as 74 nM and the IC50 (OX2) is reported as > 5000 nM.

With `Cc1ccnc(-c2sc(C)nc2C(=O)N2CC(F)(F)C[C@@H](C)[C@H]2CNc2ncc(C(F)(F)F)cn2)c1` [Compound 74] the IC50 (OX1) was 6 nM and the IC50 (OX2) was > 5000 nM.

In the case of `Cc1nc(C(=O)N2CC(F)(F)C[C@@H](C)[C@H]2CNc2cnc(C(F)(F)F)cn2)c(-c2cccnc2)o1` [Compound 156], the IC50 (OX1) is reported as > 1000 nM and the IC50 (OX2) is reported as > 5000 nM.

`C[C@@H]1CC(F)(F)CN(C(=O)c2nn(CC(F)(F)F)cc2-c2ncccn2)[C@@H]1CNc1ncc(C(F)(F)F)cn1` [Compound 238, ((2S,3R)-5,5-difluoro-3-methyl-2-(((5-(trifluoromethyl)pyrimidin-2-yl)amino)methyl)piperidin-1-yl)(4-(pyrimidin-2-yl)-1-(2,2,2-trifluoroethyl)-1H-pyrazol-3-yl)methanone] was tested, and the IC50 (OX1) was > 2000 nM and the IC50 (OX2) was > 5000 nM.

`C[C@@H]1CC(F)(F)CN(C(=O)c2nn(C)cc2-c2ccccn2)[C@@H]1CNc1ccc(C(F)(F)F)cn1` [Compound 167] was tested, and the IC50 (OX1) was 5 nM and the IC50 (OX2) was > 5000 nM.

In the case of `C[C@@H]1CC(F)(F)CN(C(=O)c2nn(C)cc2-c2ccccn2)[C@@H]1CNc1cnc(C(F)(F)F)cn1` [Compound 130], the IC50 (OX1) is reported as 6 nM and the IC50 (OX2) is reported as > 5000 nM.

In the case of `C[C@@H]1CC(F)(F)CN(C(=O)c2nn(C)cc2-c2cc(Cl)ccn2)[C@@H]1CNc1ncc(C(F)(F)F)cn1` [Compound 227, (4-(4-chloropyridin-2-yl)-1-methyl-1H-pyrazol-3-yl)((2S,3R)-5,5-difluoro-3-methyl-2-(((5-(trifluoromethyl)pyrimidin-2-yl)amino)methyl)piperidin-1-yl)methanone], the IC50 (OX1) is reported as 14 nM and the IC50 (OX2) is reported as > 5000 nM.

`COc1ccc(-n2nccn2)c(C(=O)N2CC(F)(F)C[C@@H](C)[C@H]2CNc2ccc(C(F)(F)F)cn2)n1` [Compound 202, ((2S,3R)-5,5-difluoro-3-methyl-2-(((5-(trifluoromethyl)pyridin-2-yl)amino)methyl)piperidin-1-yl)(6-methoxy-3-(2H-1,2,3-triazol-2-yl)pyridin-2-yl)methanone] was tested, and the IC50 (OX1) was 150 nM and the IC50 (OX2) was > 5000 nM.

In the case of `C[C@@H]1CC(F)(F)CN(C(=O)c2nn(C)cc2-c2ccccn2)[C@@H]1CNc1ncc(C(F)(F)F)cn1` [Compound 36], the IC50 (OX1) is reported as 19 nM and the IC50 (OX2) is reported as > 5000 nM.

For `C[C@@H]1CC(F)(F)CN(C(=O)c2cc(Cl)ccc2-c2nnn(C)n2)[C@@H]1COc1ccc(C(F)(F)F)cn1` [Compound 216, (5-chloro-2-(2-methyl-2H-tetrazol-5-yl)phenyl)((2S,3R)-5,5-difluoro-3-methyl-2-(((5-(trifluoromethyl)pyridin-2-yl)oxy)methyl)piperidin-1-yl)methanone], the IC50 (OX1) was 4 nM and the IC50 (OX2) was > 5000 nM.

`CC#Cc1ccc(C)nc1C(=O)N1CC(F)(F)C[C@@H](C)[C@H]1CNc1ncc(C(F)(F)F)cn1` [Compound 235, ((2S,3R)-5,5-difluoro-3-methyl-2-(((5-(trifluoromethyl)pyrimidin-2-yl)amino)methyl)piperidin-1-yl)(6-methyl-3-(prop-1-yn-1-yl)pyridin-2-yl)methanone] was tested, and the IC50 (OX1) was 250 nM and the IC50 (OX2) was > 5000 nM.

With `Cc1ccc(-c2nnn(C)n2)c(C(=O)N2CC(F)(F)C[C@@H](C)[C@H]2CNc2ncc(Cl)cn2)c1` [Compound 9] the IC50 (OX1) was 6 nM and the IC50 (OX2) was > 5000 nM.

With `C[C@@H]1CC(F)(F)CN(C(=O)c2cc(Cl)ccc2-n2nccn2)[C@@H]1CNc1ncc(Cl)cn1` [Compound 11] the IC50 (OX1) was 8 nM and the IC50 (OX2) was > 5000 nM.

With `Cc1nc(C(=O)N2CC(F)(F)C[C@@H](C)[C@H]2CNc2cnc(C(F)(F)F)cn2)c(-c2ccccc2)o1` [Compound 157] the IC50 (OX1) was 186 nM and the IC50 (OX2) was > 5000 nM.
